IC50 data for 15 molecules are collected here from BindingDB's records for doi:10.7270/Q2S46QBK (The Scripps Research Institute Molecular Screening Center, 2008).

pIC50: −log10 of the molar value.

As a reminder, the pIC50 is the IC50 on a negative log10 scale, so that one unit is a factor of ten.

T1 sequence (P40763 as listed by the source): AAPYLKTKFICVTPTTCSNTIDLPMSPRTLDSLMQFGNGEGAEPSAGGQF

This test addresses T1, Signal transducer and activator of transcription 3 [702-738,740-752] (Homo sapiens, UniProt P40763).
T1 construct: 702-738,740-752
Briefly: STAT3 activation reporter response, dose response, cell-based (AID 1398).
`Cc1[nH]n(-c2ccccc2)c(=O)c1C=C1C(=O)NC(=O)NC1=O`: the negative-log IC50 (pIC50) is less than 4.25.
`Cc1nonc1CC(=O)N1CCc2c([nH]c3ccccc23)C1c1ccccc1F` (stereo not given) [1-[1-(2-fluorophenyl)-1,3,4,9-tetrahydropyrido[3,4-b]indol-2-yl]-2-(4-methyl-1,2,5-oxadiazol-3-yl)ethanone] gave a pIC50 of less than 5.69.
Under `CCCSc1nnc(Sc2nnnn2-c2ccccc2)s1` [2-(1-phenyltetrazol-5-yl)sulfanyl-5-propylsulfanyl-1,3,4-thiadiazole] stands less than 5.21.
Regarding `Cn1c(CNc2ccccc2O)nc2ccccc21` [2-[(1-methyl-2-benzimidazolyl)methylamino]phenol], the pIC50 was less than 8.07.
Under `Cc1cccc(NC(=O)c2cc([N+](=O)[O-])ccc2Cl)c1O` [2-chloranyl-N-(3-methyl-2-oxidanyl-phenyl)-5-nitro-benzamide] stands less than 5.21; under `Cn1nc(-c2ccc(Cl)cc2)c2cc(C(=O)NCCCN3CCCC3)sc21` [3-(4-chlorophenyl)-1-methyl-N-(3-pyrrolidin-1-ylpropyl)thieno[2,3-c]pyrazole-5-carboxamide], less than 5.21; under `COC(=O)C(NC=O)C(O)(Cc1ccccc1)C(F)(F)F` (stereo not given) [3-benzyl-4,4,4-trifluoro-2-formamido-3-hydroxy-butyric acid methyl ester], less than 6.16.
Under `COC(=O)c1sccc1NC(=O)c1cc2c(s1)CCCC2` [MLS000051746] stands less than 5.69; under `COc1ccccc1C(=O)Nc1cc(Cl)ccc1O` [MLS000078111], less than 5.69.
Then `CC(=O)Nc1c(Cl)n(C(C)=O)c2ccccc12` [MLS000104263], with less than 7.12.
Molecule `CCCc1cc(C(=O)Nc2cc(OC)c(Cl)cc2OC)no1` [MLS000116379] showed a pIC50 of less than 6.64.
In the case of `COc1cc(NC(=O)c2cc(C(C)C)on2)c(OC)cc1Cl` [MLS000520019], the pIC50 is less than 6.64.
In turn, `COc1cc(NC(=O)c2cc(C3CC3)on2)c(OC)cc1Cl` [MLS000522376] had a negative logarithm of the IC50 (pIC50) of less than 7.12.
Under `Nc1nc(-c2ccc(Cl)cc2)nn1C(=O)c1cccs1` [MLS000706198] stands less than 6.16.
For the molecule `COc1ccccc1NC(=O)c1[nH]c(C)c(C(C)=O)c1C` [SMR000066913], the pIC50 is less than 7.59.
